We go through 5 compounds from US6623933B1 (priority 1999, dated 2003).

The test system of series [1] is primary cultures of rat hippocampal neurons. As to the kind of experiment: NMDA-induced neuronal death, trypan blue exclusion. The settings on record: for inhibition of NMDA-induced neuronal death: acute 30 μM NMDA, steroid 100 μM (3α5β 50 μM). Type of series: cell-based. The method, then: (§1) Principally neuronal cultures were prepared from hippocampal tissue of fetal Sprague-Dawley rats on day 18 of embryonic development, as previously described (Brewer et al., Brain Research 494: 65-74 (1989)). Briefly, hippocampal cells were dissociated by trituration in Ca^2+/Mg^2+-free Hank's basic salt solution (Gibco) supplemented with 4.2 mM bicarbonate, 1 mM sodium pyruvate, 20 mM HEPES, 3 mg/ml bovine serum albumin (BSA). Dissociated cells were then pelleted by centrifugation (500×g, 4 min). […] Cells were then plated onto poly-L-lysine-coated 24-well culture dishes (Nunclon) at a density of 15,000 cell/cm^2 and maintained in a humidified atmosphere containing 5% CO2/95% air at 37° C. After 48 h, nonneuronal cell division was inhibited by a 48 h exposure to 1 μM cytosine arabinoside. Cultures were subsequently maintained in serum-free DMEM plus defined components and were used for experiments 16 to 24 days after plating.
(§2) Steroids were dissolved in DMSO (0.5% final concentration), and all treatment media contained 0.5% DMSO. […] Following exposure, cultures were washed 3 times with medium from sister cultures (conditioned medium). After the final wash, steroid or vehicle was reintroduced. Drugs were added to cultures in 25 μl of conditioned medium to yield a final volume of 0.25 ml per well. Except where otherwise noted, final steroid concentration was 100 μM.
The ability of neurons to exclude trypan blue was used to quantitate cell viability (Dawson et al., Proc Natl Acad Sci USA 88: 6368-6371 (1991)). […] Cultures were then fixed with 4% paraformaldehyde in PBS for 30 min, at whichtime the fixative was replaced with PBS. The number of stained and unstained neurons were counted in 4 high-power fields per culture well, using an inverted phase contrast microscope under both bright field and phase contrast settings. Experiments were performed in triplicate, and all assessments were made with the experimenter blind to the treatment of each culture well. Percent cell death is expressed as follows: (number of trypan blue stained neurons)/(total number of neurons)×100%.
(§3) All data are expressed as mean±standard error of the mean. Statistical significance was evaluated using 95% confidence limits unless otherwise noted.

Series [2] deals with T1, NR1100+NR2A NMDA receptor (Rattus norvegicus, UniProt P35439+Q00959).
T1 construct: expressed in transfected cells; host or cells: Xenopus oocytes co-injected with NR1100 and NR2A cRNA
T1 sequence (Q00959 23-1464, other chains not shown): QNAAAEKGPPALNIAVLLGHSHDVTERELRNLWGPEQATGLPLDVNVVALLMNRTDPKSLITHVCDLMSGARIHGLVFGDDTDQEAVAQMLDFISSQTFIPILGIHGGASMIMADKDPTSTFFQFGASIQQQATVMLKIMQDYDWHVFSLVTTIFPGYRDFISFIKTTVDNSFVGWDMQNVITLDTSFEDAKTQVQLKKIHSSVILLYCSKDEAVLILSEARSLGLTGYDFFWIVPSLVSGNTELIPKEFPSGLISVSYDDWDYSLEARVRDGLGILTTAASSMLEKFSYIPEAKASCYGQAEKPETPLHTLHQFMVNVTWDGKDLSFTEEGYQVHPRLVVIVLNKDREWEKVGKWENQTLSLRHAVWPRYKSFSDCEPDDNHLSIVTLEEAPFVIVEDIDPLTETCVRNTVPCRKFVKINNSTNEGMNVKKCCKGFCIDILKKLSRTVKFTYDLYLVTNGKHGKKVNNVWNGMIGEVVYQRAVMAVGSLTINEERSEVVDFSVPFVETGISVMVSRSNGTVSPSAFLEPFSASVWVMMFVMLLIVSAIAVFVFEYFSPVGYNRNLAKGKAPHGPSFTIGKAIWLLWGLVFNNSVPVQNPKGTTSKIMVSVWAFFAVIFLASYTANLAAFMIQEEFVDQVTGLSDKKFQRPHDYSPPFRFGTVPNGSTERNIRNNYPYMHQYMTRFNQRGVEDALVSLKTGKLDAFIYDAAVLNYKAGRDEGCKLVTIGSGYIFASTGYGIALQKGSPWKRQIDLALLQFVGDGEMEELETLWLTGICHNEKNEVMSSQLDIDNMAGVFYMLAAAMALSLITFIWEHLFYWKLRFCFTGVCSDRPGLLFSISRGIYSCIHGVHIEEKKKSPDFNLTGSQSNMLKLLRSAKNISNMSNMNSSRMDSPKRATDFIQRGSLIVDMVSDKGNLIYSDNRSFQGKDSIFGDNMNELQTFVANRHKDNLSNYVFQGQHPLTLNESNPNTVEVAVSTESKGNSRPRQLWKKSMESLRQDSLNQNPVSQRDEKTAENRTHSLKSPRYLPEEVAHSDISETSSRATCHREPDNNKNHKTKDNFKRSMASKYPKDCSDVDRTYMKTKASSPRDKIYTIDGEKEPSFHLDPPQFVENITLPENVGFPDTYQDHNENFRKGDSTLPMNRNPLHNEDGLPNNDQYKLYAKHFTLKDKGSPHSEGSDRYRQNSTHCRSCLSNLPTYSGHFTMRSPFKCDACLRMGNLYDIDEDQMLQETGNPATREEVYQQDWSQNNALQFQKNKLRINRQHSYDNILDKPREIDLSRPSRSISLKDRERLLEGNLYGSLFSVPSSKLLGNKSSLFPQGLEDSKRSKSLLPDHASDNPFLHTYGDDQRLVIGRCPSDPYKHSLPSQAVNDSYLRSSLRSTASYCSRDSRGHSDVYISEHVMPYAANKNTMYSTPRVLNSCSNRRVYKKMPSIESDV
Description: NMDA-induced current (INMDA), Xenopus oocytes, Example 2. In kind it is cell-based. The settings on record: 100 μM NMDA, 100 μM steroid. As to the method:
NR1100 (NR1G) and NR2A clones were kindly provided by Dr. R. S. Zukin (Albert Einstein College of Medicine, New York, N.Y.) and Dr. S. Nakanishi (Faculty of Medicine, Kyoto University, Kyoto, Japan), respectively. mRNA was prepared through in vitro transcription of NR1100 and NR2A cDNAs using the mMessage mMachine kit (Ambion, Tex.). On the day following isolation, batches of 20-40 selected Xenopus oocytes were injected with 50 nl of prepared RNA solution (0.5 ng NR1100 and 5 ng of NR2A mRNA/oocyte). Oocytes were maintained in glass petri dishes containing Barth's solution (84 mM NaCl, 1 mM KCl, 2.4 mM NaHCO3, 0.82 mM MgSO4, 0.41 mM CaCl2, 0.33 mM Ca(NO3)2, 2.5 mM pyruvate, 0.1 mg/ml gentamycin, 7.5 mM Tris/HCl, pH 7.4) in an incubator at 18° C. Oocytes were used for electrophysiological experiments 4-10 days after injection.
Recordings from oocytes were obtained using the two electrode voltage-clamp mode with an Axoclamp-2A amplifier (Axon Instruments). The resistance of microelectrodes, pulled from glass capillaries and filled with 3 M KCl solution, was 2.5-3.5 M. Membrane potential was clamped at −70 mV. Drugs were applied by a gravity-driven external perfusion system. Drug application and data acquisition were carried out with custom-written software implemented in the SuperScopeII programming language (GW Instruments, Somerville, Mass.).
The degree of modulation of NMDA-induced Ca^2+ influx, cell death, and currents is expressed as the percent change, defined as (I′/I−1)×100%, where I and I′ are the NMDA-induced responses in the absence and presence of modulator, respectively. All data are expressed as mean±standard error of the mean. Statistical significance was evaluated using 95% confidence limits unless otherwise noted.

Series [3] has as its system primary cultures of rat hippocampal neurons. As to the kind of experiment: NMDA-induced increase in [Ca2+]i, Fluo-3 AM. In kind it is cell-based. The settings on record: for reduction of NMDA-induced rise in [Ca2+]i: 5 μM NMDA, steroid 100 μM (3α5β 50 μM). The method, then: as §1
DMSO was also added to controls to maintain a constant final DMSO concentration of […].
as §3

Series [4] can be described thus: Precipitation in assay buffer / culture medium. In kind it is physicochemical. The settings on record: 0.5% DMSO, above 50 μM (3α5β) and 20 μM (pregnenolone). The method, then:
Steroids were initially dissolved in 100% DMSO, then diluted into assay buffer at a final DMSO concentration of 0.5% and sonicated for 20 min. All other solutions also contained 0.5% DMSO. Except where otherwise noted, the final steroid concentration was 100 μM.
as §2

Series [5] deals with T1, NR1100+NR2A NMDA receptor. Description: NMDA-induced currents, Xenopus oocytes, Example 1. Type of series: cell-based. The source says: (§4) Plasmids were obtained from the following individuals: Dr. Suzanne Zukin (Albert Einstein College of Medicine, Bronx, N.Y.), NR1100; Dr. Shigetada Nakanishi (Kyoto University Faculty of Medicine, Kyoto, Japan), NR2A; Dr. Stephen Heinemann (Salk Institute, San Diego, Calif.), GluR1 (flop), GluR3 (flop), and GluR6. Plasmids were linearized with BamH1 (NR1100), XhoI (NR2A, GluR1, GluR3) or XbaI (GluR6) prior to in vitro transcription with T3 (GluR1, GluR3, GluR6) or T7 (NR1100, NR2A) RNA polymerase using the Message Machine kit (Ambion, Austin, Tex.). […] RNA solutions (50-70 nl) were injected into oocytes for delivery of NR1100 (5 ng), NR1100:NR2A (1:10 ng), GluR1 (5 ng). GluR3 (5 ng), or GluR6 (20 ng). Oocytes were incubated in ND96 at 18-20° C. for 3-7 days prior to electrophysiological recording.
(§5) Steroid solutions were prepared as 70-100 mM frozen stocks in dimethyl sulfoxide (DMSO). The final DMSO concentration of all recording solutions was between 0.1% to 0.5% and was constant within an experiment.
(§6) Perfusion control and data acquisition were carried out using an automated oocyte electrophysiology workstation that was developed for the rapid collection of concentration-response data and real-time waveform analysis (Yaghoubi et al., Soc. Neurosci. Abstr. 20: 1109 (1995)). This system is implemented on a Macintosh IIci computer (Apple Computer, Cupertino, Calif.) equipped with MacA-DIOS II data acquisition and control hardware (GW Instruments, Somerville, Mass.). Drug application is controlled by the computer through a series of valves, using custom-written software based on the SuperScope II development environment, improving the efficiency and reproducibility of data collection. Experiments were carried out using an Axoclamp-2A voltage clamp amplifier (Axon Instruments, Foster City, Calif.) in two-electrode voltage clamp mode. Intracellular microelectrodes (1-3 MΩ) were filled with 3 M KCl. […] Membrane potential was clamped at −60 to −70 mV and stepped to −100 mV at the start of data acquisition unless otherwise stated. […] Current and voltage recordings were digitized at 100 Hz for analysis. GluR6 injected oocytes were treated for 10 min with 10 μg/ml concanavalin A to prevent fast desensitization.
(§7) Results are expressed as mean±S.E.M. Statistical comparisons were made using Student's t-test.

The test system of series [6] is NMDA receptor (chick spinal cord neurons). The settings on record: Park-Chung et al. 1997; cited from earlier work.
Series [7] deals with T2, NR1100 NMDA receptor (Rattus norvegicus, UniProt P35439).
T2 construct: expressed in transfected cells; host or cells: Xenopus oocytes injected with NR1100 cRNA only
Description: NMDA-induced currents, Xenopus oocytes injected with NR1100 cRNA only, Example 1. In kind it is cell-based.
Excerpt: as §4, §5, §6, §7

In series [8] the test system is middle cerebral artery occlusion in rats. The settings on record: Weaver et al. 1997; cited from earlier work.
The test system of series [9] is primary cultures of rat hippocampal neurons. The conditions noted are these: Weaver et al. 1997; cited from earlier work.

Counter-ions that a name gives are not always drawn.

Take `CC(=O)[C@H]1CC[C@H]2[C@@H]3CC[C@@H]4C[C@H](O)CC[C@]4(C)[C@H]3CC[C@]12C` [3α5β, pregnanolone]: the “inhibition of NMDA-induced neuronal death” value in series [1] is recorded as “do not exhibit significant neuroprotective activity”. The “inhibition of INMDA” value in series [2] is “inactive”. Also, the “reduction of NMDA-induced rise in [Ca2+]i” value in [3] is reported as “no significant effect”. Also, the “precipitation at higher concentrations” value in series [4] is recorded as “higher concentrations tended to precipitate”.
For `CC(=O)[C@H]1CC[C@H]2[C@@H]3CC[C@@H]4C[C@@H](OS(=O)(=O)O)CC[C@]4(C)[C@H]3CC[C@]12C` [3β5βS, epipregnanolone sulfate], the EC50 came to 79 µM in series [5] and 144 µM in series [7]. Further, the “inhibition of NMDA-induced neuronal death” value in [1] turned out to be 86±3%. The “modulation of NMDA-induced current” value in series [6] was “strong inhibitors”.
Turning to `CC(=O)[C@H]1CC[C@H]2[C@@H]3CC=C4C[C@@H](O)CC[C@]4(C)[C@H]3CC[C@]12C` [pregnenolone], in series [1] (acute NMDA, steroid 100 μM (pregnenolone 20 μM)), the “exacerbation of NMDA-induced neuronal death” value is given as “ineffective”. In addition, the “potentiation of INMDA” value in series [2] is 5±2%. Besides, the “potentiation of NMDA-induced Ca2+ accumulation” value in series [3] is “without effect”. In [4], the “precipitation at higher concentrations” value is given as “higher concentrations tended to precipitate”.
pregnanolone hemisuccinate [3α5βHS]: in series [1], the “inhibition of NMDA-induced neuronal death” value is 54±3%. The “inhibition of INMDA” value in series [2] is recorded as “about equally effective in inhibiting INMDA”. The “reduction of NMDA-induced rise in [Ca2+]i” value in series [3] is given as “approximately 40%”. The “inhibition of neuronal death after middle cerebral artery occlusion” value in series [8] is “effective at inhibiting the neuronal death”.
Regarding `C[C@]12CC[C@@H]3c4ccc(O)cc4CC[C@H]3[C@@H]1CC[C@@H]2O` [17β-estradiol], the “neuroprotection against NMDA-induced neuronal death” value in series [9] is “neuroprotective against NMDA-induced neuronal death”.

A word on the EC50: it is the concentration giving half of the maximal effect.
